The results in this text go back to ChEMBL document CHEMBL1145498, “A systematic interaction map of validated kinase inhibitors with Ser/Thr kinases” (Proc Natl Acad Sci U S A, 2007).

The target of assay [1] is 5'-AMP-activated protein kinase catalytic subunit alpha-2 (Homo sapiens) (UniProt P54646).
In assay [2] the target is Serine/threonine-protein kinase 16 (Homo sapiens) (UniProt O75716).
Assay [3] addresses Calcium/calmodulin-dependent protein kinase type 1G (Homo sapiens) (UniProt Q96NX5).
For assay [4], the target named is Calcium/calmodulin-dependent protein kinase type 1D (Homo sapiens) (UniProt Q8IU85).
Calcium/calmodulin-dependent protein kinase type 1D (Homo sapiens), sequence (Q8IU85 whole entry, looked up): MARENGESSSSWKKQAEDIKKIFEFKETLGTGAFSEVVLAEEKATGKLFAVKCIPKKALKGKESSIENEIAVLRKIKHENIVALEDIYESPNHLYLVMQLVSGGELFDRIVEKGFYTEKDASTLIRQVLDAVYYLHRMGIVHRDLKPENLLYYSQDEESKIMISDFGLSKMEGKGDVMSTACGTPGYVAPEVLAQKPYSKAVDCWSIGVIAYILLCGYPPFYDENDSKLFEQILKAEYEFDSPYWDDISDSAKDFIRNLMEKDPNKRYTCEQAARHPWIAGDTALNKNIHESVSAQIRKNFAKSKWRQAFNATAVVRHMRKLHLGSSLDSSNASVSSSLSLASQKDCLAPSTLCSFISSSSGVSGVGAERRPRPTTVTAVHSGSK
For assay [5], the target named is T1, Serine/threonine-protein kinase PLK4 (Homo sapiens) (UniProt O00444).
T1 sequence (whole entry): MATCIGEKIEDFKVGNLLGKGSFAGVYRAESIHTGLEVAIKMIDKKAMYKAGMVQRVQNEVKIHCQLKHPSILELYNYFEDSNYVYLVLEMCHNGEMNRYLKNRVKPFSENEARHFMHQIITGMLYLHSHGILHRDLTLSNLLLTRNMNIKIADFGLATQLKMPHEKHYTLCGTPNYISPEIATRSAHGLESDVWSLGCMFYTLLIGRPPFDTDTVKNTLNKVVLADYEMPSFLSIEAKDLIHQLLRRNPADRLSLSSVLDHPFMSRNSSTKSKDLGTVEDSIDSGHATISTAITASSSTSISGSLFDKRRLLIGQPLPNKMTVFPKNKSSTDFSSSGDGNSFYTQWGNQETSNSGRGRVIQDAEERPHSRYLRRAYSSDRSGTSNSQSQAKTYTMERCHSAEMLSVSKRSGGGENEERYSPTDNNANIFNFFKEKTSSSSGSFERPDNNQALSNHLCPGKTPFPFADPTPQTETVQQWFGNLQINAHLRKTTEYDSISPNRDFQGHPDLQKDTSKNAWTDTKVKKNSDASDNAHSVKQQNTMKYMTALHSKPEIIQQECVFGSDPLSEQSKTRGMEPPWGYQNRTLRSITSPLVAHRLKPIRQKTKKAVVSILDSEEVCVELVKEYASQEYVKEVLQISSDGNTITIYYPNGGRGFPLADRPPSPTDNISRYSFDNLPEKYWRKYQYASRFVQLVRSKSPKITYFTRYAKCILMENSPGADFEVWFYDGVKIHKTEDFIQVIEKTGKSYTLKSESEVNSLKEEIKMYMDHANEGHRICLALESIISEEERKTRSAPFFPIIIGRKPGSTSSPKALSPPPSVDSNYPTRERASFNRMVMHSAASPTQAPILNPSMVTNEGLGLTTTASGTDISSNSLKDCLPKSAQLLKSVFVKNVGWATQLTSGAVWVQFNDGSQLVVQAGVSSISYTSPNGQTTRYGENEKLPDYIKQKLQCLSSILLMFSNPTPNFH

Assay [6] addresses Serine/threonine-protein kinase 26 (Homo sapiens) (UniProt Q9P289).
Assay [7] has as its target Serine/threonine-protein kinase OSR1 (Homo sapiens) (UniProt O95747).
The target in assay [8] is T2, Dual specificity mitogen-activated protein kinase kinase 6 (Homo sapiens) (UniProt P52564).
T2 sequence (whole entry): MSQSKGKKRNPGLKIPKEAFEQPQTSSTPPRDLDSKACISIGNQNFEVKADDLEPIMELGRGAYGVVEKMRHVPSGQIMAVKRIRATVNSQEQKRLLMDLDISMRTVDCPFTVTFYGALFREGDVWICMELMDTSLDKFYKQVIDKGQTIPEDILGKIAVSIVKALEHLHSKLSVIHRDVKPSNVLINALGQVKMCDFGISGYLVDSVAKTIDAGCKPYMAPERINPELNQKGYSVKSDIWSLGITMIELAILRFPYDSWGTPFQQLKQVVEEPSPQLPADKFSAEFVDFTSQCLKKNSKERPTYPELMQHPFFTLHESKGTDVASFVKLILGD

For assay [9], the target named is Serine/threonine-protein kinase PAK 5 (Homo sapiens) (UniProt Q9P286).
Serine/threonine-protein kinase PAK 5 (Homo sapiens), sequence (Q9P286 whole entry, looked up): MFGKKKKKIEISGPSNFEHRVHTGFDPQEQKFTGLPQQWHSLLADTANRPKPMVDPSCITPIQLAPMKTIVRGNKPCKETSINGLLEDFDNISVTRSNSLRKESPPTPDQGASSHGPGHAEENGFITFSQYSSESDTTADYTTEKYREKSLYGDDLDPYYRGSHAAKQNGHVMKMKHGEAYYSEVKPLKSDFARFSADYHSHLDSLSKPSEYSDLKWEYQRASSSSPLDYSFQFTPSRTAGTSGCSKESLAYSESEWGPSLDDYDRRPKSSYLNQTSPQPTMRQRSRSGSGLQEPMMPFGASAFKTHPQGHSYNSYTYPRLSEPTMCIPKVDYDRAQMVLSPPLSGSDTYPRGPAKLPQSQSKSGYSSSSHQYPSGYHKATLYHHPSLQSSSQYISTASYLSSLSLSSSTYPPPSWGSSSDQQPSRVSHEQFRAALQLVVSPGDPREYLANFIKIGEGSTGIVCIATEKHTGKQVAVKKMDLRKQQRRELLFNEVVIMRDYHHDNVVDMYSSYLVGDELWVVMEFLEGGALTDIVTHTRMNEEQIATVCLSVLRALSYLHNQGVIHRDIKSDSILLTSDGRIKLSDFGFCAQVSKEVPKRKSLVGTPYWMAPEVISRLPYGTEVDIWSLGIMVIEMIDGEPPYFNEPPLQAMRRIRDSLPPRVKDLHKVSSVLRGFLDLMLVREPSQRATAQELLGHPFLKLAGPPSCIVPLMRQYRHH
Assay [10] concerns the target T3, Serine/threonine-protein kinase VRK3 (Homo sapiens) (UniProt Q8IV63).
T3 sequence (whole entry): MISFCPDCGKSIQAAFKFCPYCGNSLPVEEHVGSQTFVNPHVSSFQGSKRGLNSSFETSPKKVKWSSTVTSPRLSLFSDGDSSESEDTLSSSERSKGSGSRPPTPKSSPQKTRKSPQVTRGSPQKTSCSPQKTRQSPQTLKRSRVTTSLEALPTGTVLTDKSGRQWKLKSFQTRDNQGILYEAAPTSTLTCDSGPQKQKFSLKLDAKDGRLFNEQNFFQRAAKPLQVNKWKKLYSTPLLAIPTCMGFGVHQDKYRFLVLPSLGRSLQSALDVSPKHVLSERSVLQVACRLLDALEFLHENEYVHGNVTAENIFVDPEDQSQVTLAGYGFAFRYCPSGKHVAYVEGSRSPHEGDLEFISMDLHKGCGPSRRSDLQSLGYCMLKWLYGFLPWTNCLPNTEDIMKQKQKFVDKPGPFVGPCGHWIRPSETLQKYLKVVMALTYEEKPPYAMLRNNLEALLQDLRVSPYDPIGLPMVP

In assay [11] the target is Cyclin-dependent kinase 2 (Homo sapiens, UniProt P24941).
Assay [12] has as its target T4, Serine/threonine-protein kinase Nek2 (Homo sapiens) (UniProt P51955).
T4 sequence (whole entry): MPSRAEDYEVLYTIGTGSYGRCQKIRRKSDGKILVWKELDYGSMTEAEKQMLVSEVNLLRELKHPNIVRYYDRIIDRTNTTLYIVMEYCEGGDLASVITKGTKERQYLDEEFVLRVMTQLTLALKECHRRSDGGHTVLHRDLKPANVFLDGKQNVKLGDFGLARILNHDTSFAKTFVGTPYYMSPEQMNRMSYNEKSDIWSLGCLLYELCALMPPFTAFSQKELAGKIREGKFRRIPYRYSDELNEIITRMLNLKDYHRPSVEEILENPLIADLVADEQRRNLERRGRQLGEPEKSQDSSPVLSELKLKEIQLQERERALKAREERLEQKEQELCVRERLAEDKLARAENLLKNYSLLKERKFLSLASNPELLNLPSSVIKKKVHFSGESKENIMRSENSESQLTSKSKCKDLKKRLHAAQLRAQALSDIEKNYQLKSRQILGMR

The target in assay [13] is Serine/threonine-protein kinase RIO2 (Homo sapiens) (UniProt Q9BVS4).
Serine/threonine-protein kinase RIO2 (Homo sapiens), sequence (Q9BVS4 whole entry, looked up): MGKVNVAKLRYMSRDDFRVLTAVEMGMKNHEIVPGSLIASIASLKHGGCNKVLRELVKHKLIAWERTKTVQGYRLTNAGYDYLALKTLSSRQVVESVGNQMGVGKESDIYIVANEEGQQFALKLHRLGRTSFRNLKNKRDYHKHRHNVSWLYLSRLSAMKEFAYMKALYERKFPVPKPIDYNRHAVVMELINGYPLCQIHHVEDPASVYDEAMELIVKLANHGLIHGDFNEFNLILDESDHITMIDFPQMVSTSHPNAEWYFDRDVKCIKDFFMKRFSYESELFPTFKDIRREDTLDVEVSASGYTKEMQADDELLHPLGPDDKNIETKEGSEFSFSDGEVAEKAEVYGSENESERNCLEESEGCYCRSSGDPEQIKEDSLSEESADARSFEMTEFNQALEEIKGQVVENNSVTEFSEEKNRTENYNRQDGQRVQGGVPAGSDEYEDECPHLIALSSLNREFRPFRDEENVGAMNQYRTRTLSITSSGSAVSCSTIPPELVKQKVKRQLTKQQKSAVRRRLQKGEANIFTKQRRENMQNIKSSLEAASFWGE
Assay [14] addresses Dual specificity protein kinase CLK2 (Homo sapiens) (UniProt P49760).

Dual specificity protein kinase CLK2 (Homo sapiens), sequence (P49760 whole entry, looked up): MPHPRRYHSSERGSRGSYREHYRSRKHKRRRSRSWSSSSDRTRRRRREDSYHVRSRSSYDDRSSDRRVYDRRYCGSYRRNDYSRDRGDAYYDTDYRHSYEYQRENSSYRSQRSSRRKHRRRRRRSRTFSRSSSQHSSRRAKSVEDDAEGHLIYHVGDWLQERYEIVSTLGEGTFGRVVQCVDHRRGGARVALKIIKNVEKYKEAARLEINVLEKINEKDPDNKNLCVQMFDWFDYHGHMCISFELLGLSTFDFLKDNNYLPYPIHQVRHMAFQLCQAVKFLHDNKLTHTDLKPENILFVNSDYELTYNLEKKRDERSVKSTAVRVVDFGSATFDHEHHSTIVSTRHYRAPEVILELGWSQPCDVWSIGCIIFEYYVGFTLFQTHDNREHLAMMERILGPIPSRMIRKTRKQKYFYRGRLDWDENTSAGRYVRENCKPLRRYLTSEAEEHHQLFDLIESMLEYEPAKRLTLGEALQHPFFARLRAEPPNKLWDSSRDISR
5'-AMP-activated protein kinase catalytic subunit alpha-2 (Homo sapiens), sequence (P54646 whole entry, looked up): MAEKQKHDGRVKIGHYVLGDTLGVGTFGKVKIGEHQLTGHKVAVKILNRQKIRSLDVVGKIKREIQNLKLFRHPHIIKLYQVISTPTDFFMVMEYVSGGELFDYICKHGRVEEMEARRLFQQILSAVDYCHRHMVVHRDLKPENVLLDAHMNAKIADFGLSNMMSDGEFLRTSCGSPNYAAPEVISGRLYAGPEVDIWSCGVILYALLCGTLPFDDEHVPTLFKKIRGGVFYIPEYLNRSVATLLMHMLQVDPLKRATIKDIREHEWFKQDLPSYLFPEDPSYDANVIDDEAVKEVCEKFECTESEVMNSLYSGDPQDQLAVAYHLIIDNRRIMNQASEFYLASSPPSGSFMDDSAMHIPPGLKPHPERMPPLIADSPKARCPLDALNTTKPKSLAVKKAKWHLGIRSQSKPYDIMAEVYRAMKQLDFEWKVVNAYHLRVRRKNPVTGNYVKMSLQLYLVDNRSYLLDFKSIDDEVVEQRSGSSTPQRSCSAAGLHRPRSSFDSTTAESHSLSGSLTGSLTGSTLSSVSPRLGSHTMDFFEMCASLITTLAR
Serine/threonine-protein kinase OSR1 (Homo sapiens), sequence (O95747 2-527 limits assumed): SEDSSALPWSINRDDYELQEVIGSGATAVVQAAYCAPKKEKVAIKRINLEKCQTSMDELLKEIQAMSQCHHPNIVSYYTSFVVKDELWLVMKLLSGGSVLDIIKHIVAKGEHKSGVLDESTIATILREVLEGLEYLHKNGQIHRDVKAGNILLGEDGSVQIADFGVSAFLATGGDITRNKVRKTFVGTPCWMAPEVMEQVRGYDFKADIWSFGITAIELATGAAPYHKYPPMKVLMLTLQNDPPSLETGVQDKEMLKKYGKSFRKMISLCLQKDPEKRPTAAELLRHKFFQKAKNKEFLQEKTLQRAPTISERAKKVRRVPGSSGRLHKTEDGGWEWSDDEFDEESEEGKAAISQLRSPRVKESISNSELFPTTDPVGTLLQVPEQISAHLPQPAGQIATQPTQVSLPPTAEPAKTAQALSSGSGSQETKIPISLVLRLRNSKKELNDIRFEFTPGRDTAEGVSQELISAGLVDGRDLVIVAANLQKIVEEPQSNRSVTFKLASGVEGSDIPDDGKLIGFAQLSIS
Serine/threonine-protein kinase 16 (Homo sapiens), sequence (O75716 whole entry): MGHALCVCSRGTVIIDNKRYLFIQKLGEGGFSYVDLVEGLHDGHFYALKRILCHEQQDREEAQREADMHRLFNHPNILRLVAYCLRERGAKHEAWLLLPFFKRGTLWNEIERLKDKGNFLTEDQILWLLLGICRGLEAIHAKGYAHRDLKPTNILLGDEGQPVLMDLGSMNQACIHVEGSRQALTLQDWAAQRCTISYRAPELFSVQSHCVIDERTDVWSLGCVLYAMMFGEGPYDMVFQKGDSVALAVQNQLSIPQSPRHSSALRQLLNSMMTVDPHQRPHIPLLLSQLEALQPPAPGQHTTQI
Serine/threonine-protein kinase 26 (Homo sapiens), sequence (Q9P289 2-416 limits assumed): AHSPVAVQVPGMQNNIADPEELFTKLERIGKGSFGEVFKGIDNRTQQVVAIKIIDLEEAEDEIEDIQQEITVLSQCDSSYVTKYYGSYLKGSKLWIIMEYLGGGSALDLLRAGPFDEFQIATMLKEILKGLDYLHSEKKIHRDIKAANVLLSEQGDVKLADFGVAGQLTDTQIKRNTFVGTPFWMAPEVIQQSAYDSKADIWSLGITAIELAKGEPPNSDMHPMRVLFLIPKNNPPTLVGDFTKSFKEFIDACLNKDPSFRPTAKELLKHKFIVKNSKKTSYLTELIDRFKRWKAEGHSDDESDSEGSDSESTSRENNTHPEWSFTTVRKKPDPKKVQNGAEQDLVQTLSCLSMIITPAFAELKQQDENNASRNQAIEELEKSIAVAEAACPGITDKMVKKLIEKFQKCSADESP
Calcium/calmodulin-dependent protein kinase type 1G (Homo sapiens), sequence (Q96NX5 whole entry): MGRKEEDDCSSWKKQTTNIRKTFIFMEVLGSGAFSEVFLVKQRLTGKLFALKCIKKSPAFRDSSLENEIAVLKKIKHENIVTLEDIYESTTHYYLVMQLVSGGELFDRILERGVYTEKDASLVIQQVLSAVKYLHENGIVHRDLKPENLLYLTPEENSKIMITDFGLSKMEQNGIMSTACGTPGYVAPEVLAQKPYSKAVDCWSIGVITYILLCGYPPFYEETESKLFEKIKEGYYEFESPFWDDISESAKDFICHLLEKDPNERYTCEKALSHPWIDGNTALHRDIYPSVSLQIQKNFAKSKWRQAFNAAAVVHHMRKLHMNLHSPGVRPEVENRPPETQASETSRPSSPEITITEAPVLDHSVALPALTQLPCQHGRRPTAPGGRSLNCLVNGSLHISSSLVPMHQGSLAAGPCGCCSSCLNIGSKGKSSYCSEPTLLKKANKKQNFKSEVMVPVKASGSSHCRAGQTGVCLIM

As for `O=C1Nc2cc(Br)ccc2/C1=C1/Nc2ccccc2/C1=N\O`, the ΔTm is 2.4 °C in assay [1]; 7.6 °C in assay [2]; -0.8 °C in assay [3]; -0.8 °C in assay [4]; 1.5 °C in [5]; 3.7 °C in assay [6]. Also, the ΔTm in assay [7] amounted to 0.6 °C; in [8], 0.2 °C; in assay [9] it was 4.6 °C; in [10], 1.3 °C; in [11] it was 4.1 °C; in assay [12], 0.7 °C. The values for the ΔTm in assay [13] and in assay [14] were 4.4 °C and 1.9 °C, respectively.

Regarding `COc1ccc(COc2ccc(Cc3cnc(N)nc3N)cc2OC)cc1`, the ΔTm in assay [1] is 0.1 °C; in assay [2], 0 °C; in assay [3], -0.2 °C; in [4] it was 0.1 °C; in assay [5] it was -0.1 °C; in [6], 0.9 °C. For the same molecule, the ΔTm in assay [7] was 0.3 °C; in [8] it was 0.1 °C; in assay [9] it was -0.2 °C; in assay [12] it was -0.1 °C; in assay [13] it was 0.2 °C; in assay [14] it was -0.2 °C.

In the case of `Cc1ccc(NC(=O)c2ccc(CN3CCN(C)CC3)cc2)cc1Nc1nccc(-c2cccnc2)n1`, the ΔTm is 2.6 °C in assay [1]; 2.9 °C in assay [2]; 0.1 °C in [3]; 0.4 °C in assay [4]; 0.2 °C in assay [5]; 1 °C in [6]. Besides, the ΔTm in assay [7] was 0.7 °C; in [8] it was 0.4 °C; in [9] it was -0.6 °C; in assay [10], -0.2 °C; in [12], -0.8 °C; in [13] it was 1.2 °C.

On to `Cc1nc(Nc2ncc(C(=O)Nc3c(C)cccc3Cl)s2)cc(N2CCN(CCO)CC2)n1`, for which the ΔTm in assay [1] was 0.2 °C; in assay [3], 0.5 °C; in assay [4], 0.9 °C; in assay [5] it was 2.5 °C; in assay [6], -0.4 °C; in assay [7], 0.4 °C. Besides, the ΔTm in [8] is 0.5 °C; in assay [9], -0.6 °C; in [11], 0.2 °C; in [12], 0.1 °C; in assay [13] it was 2.3 °C; in assay [14], 0.1 °C.

On to `O=C1C=C2C(=Nc3c2c2c(c4c3=NC3=C4CCC=C3)C=NC=2)CC1`, for which the ΔTm in assay [1] is -0.2 °C; in [2] it was 11.5 °C; in assay [3] it was 3.6 °C; in assay [4], 3.6 °C; in assay [5], 2.3 °C; in assay [6] it was 4.8 °C. In addition, the ΔTm was 2.1 °C in assay [7]; 5.3 °C in assay [8]; 2.7 °C in [9]; 4 °C in assay [11]; 2.8 °C in assay [12]; 4.7 °C in assay [13]. Moreover, in assay [14], the ΔTm amounted to 4.2 °C.

Regarding `CN1CCC(Nc2ncc3ncnc(Nc4ccc(F)c(Cl)c4)c3n2)CC1` [FALNIDAMOL], the ΔTm in assay [1] was determined as 0.1 °C; in [3] it was 0.5 °C; in assay [4] it was 0.7 °C; in assay [5], 0.3 °C; in assay [6], 6.7 °C; in assay [7] it was 1.4 °C. Moreover, the ΔTm in assay [8] is 0.3 °C; in [9], 2.5 °C; in assay [11], 0.1 °C; in assay [12], 2.4 °C; in assay [13], -0.4 °C; in assay [14], 4.2 °C.

Consider `CCN(CC)CCNC(=O)c1c(C)[nH]c(/C=C2\C(=O)Nc3ccc(F)cc32)c1C`, for which the ΔTm in assay [1] stood at 7.4 °C; in assay [2], 3.3 °C; in assay [5], 1.6 °C; in [6], 4.7 °C; in assay [7] it was 3 °C; in assay [8] it was 3.9 °C. Moreover, the ΔTm in assay [9] is 1.7 °C; in assay [12], -0.4 °C; in assay [13] it was 6 °C; in assay [14], 5.9 °C.

Consider `Nc1n[nH]c2nnc(-c3c(-c4ccccc4)nn4ccccc34)cc12`, for which the ΔTm in [1] was 0 °C; in assay [2], 0 °C; in assay [3], 0.1 °C; in [4], 0.1 °C; in [5], -0.2 °C; in assay [6], 1 °C. The ΔTm in assay [7] is 0.3 °C; in assay [8] it was 0.2 °C; in assay [9], -0.4 °C; in assay [11], 0.1 °C; in assay [12] it was -0.2 °C; in assay [13], -0.4 °C. Also, the ΔTm in assay [14] was 0.5 °C.

On to `Cn1cc(/C=C2/C(=O)Nc3ccc(S(N)(=O)=O)cc32)c2ccccc21`, for which the ΔTm was 8.3 °C in assay [1]; 1.7 °C in [2]; 0.5 °C in assay [3]; 2 °C in assay [4]; 6.2 °C in assay [5]; 5.7 °C in assay [6]. Moreover, the ΔTm in [7] came out at 3.7 °C; in assay [8], 10.3 °C; in assay [9] it was 4.3 °C; in [11] it was 1.3 °C; in assay [12], 0.9 °C; in assay [13], 5 °C. Besides, in [14], the ΔTm worked out at 3.6 °C.

In the case of `Clc1ccc(Nc2nnc(Cc3ccncc3)c3ccccc23)cc1`, the ΔTm in assay [1] is -0.1 °C; in assay [3], 0.5 °C; in assay [4], 0.6 °C; in assay [5] it was 0.4 °C; in assay [6] it was -0.6 °C; in assay [7] it was 0.8 °C. For the same molecule, the ΔTm in assay [8] is 0.4 °C; in assay [9] it was -0.7 °C; in [11], -0.5 °C; in assay [12], 0.6 °C; in assay [13], -0.8 °C; in [14], -0.6 °C.

In general, ΔTm refers to the change in melting temperature against a reference sample.
